Among the test systems are 786-0 renal; LOX IMVI melanoma; MDA-MB-435; MALME-3M melanoma; OVCAR-8 ovarian; NCI-H23 lung; SK-MEL-28 melanoma; UACC-257 melanoma; SW-620 colon; SN12C renal; HT29 colon; SNB-75 CNS; SK-MEL-5 melanoma; COLO 205 colon; OVCAR-3 ovarian; MOLT-4 leukemia.
Assay in all cases: NCI tumour cell line growth inhibition, 48 h

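Compound exposure: 48 hours, 5 concentrations, 96-well plates. TGI marks complete inhibition of growth.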 Some results are limits rather than exact numbers.

These results are taken from PubChem BioAssay (NCI).

With `Cc1nc(Cl)c2sc(=S)n(-c3ccc(F)cc3)c2n1`, the TGI in the assay with 786-0 renal turned out to be 11.9 µM; with LOX IMVI melanoma, 3.61 µM; with MDA-MB-435 it was 8.68 µM; in the assay on MALME-3M melanoma, 23.9 µM; in the assay with OVCAR-8 ovarian, 33.8 µM; in the assay on NCI-H23 lung, 2.52 µM. In addition, the TGI worked out at 10.6 µM with SK-MEL-28 melanoma; 10.5 µM with UACC-257 melanoma; 14.1 µM in the assay with SW-620 colon; 18.4 µM with SN12C renal; 5.51 µM with HT29 colon; 18.1 µM with SNB-75 CNS. The TGI in the assay with SK-MEL-5 melanoma was 10.3 µM; in the assay on COLO 205 colon, 16.6 µM; in the assay with OVCAR-3 ovarian, 7.02 µM.
In the case of `N#Cc1nc(C2CC2)oc1N`, the TGI in the assay on 786-0 renal, with LOX IMVI melanoma, in the assay on MDA-MB-435, in the assay on MALME-3M melanoma, in the assay with OVCAR-8 ovarian and in the assay on NCI-H23 lung was more than 100 µM in each case. In addition, the TGI with SK-MEL-28 melanoma, in the assay with UACC-257 melanoma, in the assay with MOLT-4 leukemia, in the assay on SW-620 colon, with SN12C renal and in the assay with HT29 colon was more than 100 µM each time. Further, the TGI in the assay on SNB-75 CNS, in the assay with COLO 205 colon and in the assay on OVCAR-3 ovarian was more than 100 µM throughout.
As to `Cn1c(NN)nc(-c2ccc([N+](=O)[O-])cc2)c(C#N)c1=O`, the TGI in the assay with 786-0 renal worked out at 27.2 µM; in the assay on LOX IMVI melanoma, 35.2 µM; with MDA-MB-435 it was 32.8 µM; in the assay with MALME-3M melanoma, 29.7 µM; with OVCAR-8 ovarian, 42.3 µM; in the assay with NCI-H23 lung, 26.2 µM. Further, the TGI in the assay on SK-MEL-28 melanoma was determined as 25 µM; in the assay with UACC-257 melanoma, 29.1 µM; with SW-620 colon, 25.2 µM; with SN12C renal, 29 µM; with HT29 colon, 28.7 µM; with SNB-75 CNS it was 34.7 µM. The figures for the TGI in the assay with SK-MEL-5 melanoma, in the assay with COLO 205 colon and with OVCAR-3 ovarian were 17.3 µM, 47.7 µM and 34.3 µM, respectively.
For the compound `O=c1[nH]c(=O)n(C2CC(O)C(CO)O2)cc1OCCc1ccccc1` (configuration not stated), the TGI in the assay with 786-0 renal, in the assay on LOX IMVI melanoma, in the assay with MDA-MB-435, in the assay with MALME-3M melanoma, in the assay with OVCAR-8 ovarian and in the assay with NCI-H23 lung was more than 100 µM in each case. In addition, the TGI in the assay on SK-MEL-28 melanoma, in the assay with UACC-257 melanoma, in the assay with MOLT-4 leukemia, in the assay with SN12C renal, in the assay with HT29 colon and in the assay on SNB-75 CNS was more than 100 µM in each case. Besides, the TGI with SK-MEL-5 melanoma, in the assay on COLO 205 colon and in the assay on OVCAR-3 ovarian was more than 100 µM throughout.
As to `O=S(=O)(C(=Ic1ccccc1)S(=O)(=O)C(F)(F)C(F)(F)C(F)(F)C(F)(F)F)C(F)(F)C(F)(F)C(F)(F)C(F)(F)F`, the TGI in the assay on 786-0 renal stood at 29.5 µM; in the assay on LOX IMVI melanoma, 28 µM; with MDA-MB-435 it was 36.8 µM; in the assay on MALME-3M melanoma, 26.1 µM; with NCI-H23 lung it was 39.7 µM; with SK-MEL-28 melanoma, 29.4 µM. Besides, the TGI in the assay with UACC-257 melanoma turned out to be 32.8 µM; in the assay on MOLT-4 leukemia, 13.8 µM; in the assay with SW-620 colon, 20.5 µM; in the assay on HT29 colon, 31.4 µM; in the assay with SNB-75 CNS, 28.5 µM; with SK-MEL-5 melanoma it was 27.5 µM. The TGI was 21.8 µM in the assay with COLO 205 colon and 29.3 µM in the assay on OVCAR-3 ovarian.
`CC1=NN(c2nc(N)nc(/C(C#N)=C/c3ccc([N+](=O)[O-])o3)n2)C(C)(C)C1`: the TGI in the assay on 786-0 renal was found to be 2.99 µM; in the assay on LOX IMVI melanoma it was 3.07 µM; with MDA-MB-435, 6.38 µM; with MALME-3M melanoma, 4.23 µM; in the assay with OVCAR-8 ovarian it was 8.91 µM; in the assay on NCI-H23 lung, 10.8 µM. Besides, the TGI amounted to 19.1 µM in the assay with SK-MEL-28 melanoma; 27.2 µM with UACC-257 melanoma; 6.12 µM with MOLT-4 leukemia; 3.71 µM in the assay on SW-620 colon; 4.37 µM in the assay with HT29 colon; 10.1 µM in the assay with SNB-75 CNS. For the same compound, the TGI in the assay with SK-MEL-5 melanoma was found to be 17 µM; in the assay on COLO 205 colon it was 3.02 µM; with OVCAR-3 ovarian, 11.1 µM.
`CC1=C(C(=O)N[C@@H](Cc2ccccc2)C(=O)O)N2C(=O)[C@@H](NC(=O)[C@@H](N)CC(C)C)[C@H]2SC1`: the TGI in the assay with 786-0 renal, in the assay on LOX IMVI melanoma, in the assay on MDA-MB-435, in the assay with MALME-3M melanoma, in the assay on OVCAR-8 ovarian and in the assay on SK-MEL-28 melanoma was more than 100 µM in each case. Also, the TGI in the assay on UACC-257 melanoma, in the assay on MOLT-4 leukemia, in the assay with SW-620 colon, in the assay on SN12C renal, with SNB-75 CNS and in the assay with SK-MEL-5 melanoma was more than 100 µM in each case. In addition, the TGI in the assay on COLO 205 colon and with OVCAR-3 ovarian was more than 100 µM throughout.
Regarding `O=C(O)CN=C(C(=NCC(=O)O)c1ccccc1)c1ccccc1`, the TGI with 786-0 renal, with LOX IMVI melanoma, in the assay with MDA-MB-435, with MALME-3M melanoma, with OVCAR-8 ovarian and in the assay with NCI-H23 lung was more than 100 µM in each case. Further, the TGI with SK-MEL-28 melanoma, with UACC-257 melanoma, with MOLT-4 leukemia, with SW-620 colon, with SN12C renal and in the assay on SNB-75 CNS was more than 100 µM each time. Also, the TGI in the assay with COLO 205 colon and in the assay on OVCAR-3 ovarian was more than 100 µM each time.
With `O=c1[nH]c(=O)n(C2CC(O)C(CO)O2)cc1NN=NCCc1ccccc1` (configuration not stated), the TGI with 786-0 renal, in the assay on LOX IMVI melanoma, in the assay on MDA-MB-435, in the assay with MALME-3M melanoma, in the assay on OVCAR-8 ovarian and in the assay on NCI-H23 lung was more than 100 µM in each case. In addition, the TGI in the assay on SK-MEL-28 melanoma, in the assay with UACC-257 melanoma, in the assay with MOLT-4 leukemia, with SN12C renal, in the assay with HT29 colon and in the assay on SNB-75 CNS was more than 100 µM throughout. The TGI with SK-MEL-5 melanoma, with COLO 205 colon and with OVCAR-3 ovarian was more than 100 µM in each case.
